We go through three molecules from patent US20110319463A1, “PREVENTIVE OR THERAPEUTIC AGENTS FOR OPTIC NERVE DISORDERS COMPRISING 4,6-DICHLORO-1H-INDOLE-2-CARBOXYLIC ACID DERIVATIVES OR SALTS THEREOF AS ACTIVE INGREDIENTS” (Saten Pharamaceuticals Co., Ltd., priority 2009, published 2011).

Type in all cases: in vivo
Data set [1] has as its system cell count in the retinal ganglion cell layer. As to the kind of experiment: NMDA-induced rat retinal disorder model, retinal section evaluation (GCL cell count) after oral administration. The settings on record: 10 nmol NMDA intravitreously, 30 mg/kg orally twice a day for 3 days, eyeballs enucleated 3 days after NMDA, non-treatment group = 100%, NMDA + base = 0%. The text has this: A NMDA-induced rat retinal disorder model (Invest. Ophthalmol. Vis. Sci., 2003; 44:385-392) employed widely as an optic nerve disorder model was employed to evaluate the usefulness (retinal nerve cell death inhibiting effect) of the present compound.
A rat [Slc:SD, male, about 7 week-old) was allowed to inhale a gas containing 3 to 4% (v/v) vaporized isoflurane at a rate of 1 to 1.5 L air/min to accomplish a systemic introducing anesthesia, followed by a maintaining anesthesia with 2 to 3% (v/v) isoflurane. Thereafter, 5 μl of a solution of NMDA (Sigma, catalog No. M3262) dissolved at 2 mmol/L in a phosphate buffer (hereinafter referred to also as “PBS”) was given intravitreously (10 nmol as NMDA).
The rat 3 days after the intravitreous administration of the NMDA solution was treated with a 100 mg/kg sodium pentobarbital injection solution by an intraperitoneal administration to accomplish a systemic anesthesia and then the eyeballs were enucleated. The enucleated eyeballs were fixed in a 25%(w/v) glutaraldehyde: 10% (w/v) neutral buffered formalin=1:9 mixture. The fixed eyeballs were embedded with a paraffin and then sliced into retinal sections (3 μm in thickness), which were then subjected to a hematoxylin and eosin staining. Eight retinal sections were taken per eyeball at intervals of 45 μm so that the optic nerve papilla was included. Among these 8 sections, 3 sections were selected randomly, and a selected section was photographed for the retina of 700 to 900 μm in width with its center being located about 1.25 mm from the optic nerve papilla, using which the cell count in the retinal ganglion cell layer (hereinafter referred to also as “GCL cell count”) was calculated (average value). From the resultant GCL cell count, a % GCL cell count reduction inhibition of each test substance was calculated according to Equation 1 while assigning 100% to the non-treatment group and 0% to a group of 10 nmol NMDA given intravitreously+base given orally. Each group included 4 animals (7 to 8 eyeballs).
% GCL cell count reduction inhibition=(NX−NO)/(NU−NO)×100 [Equation 1] […]

Data set [2] concerns neurofilament light chain (NFL) expression level in the retinal tissue. As to the kind of experiment: NMDA-induced rat retinal disorder model, quantitative PCR evaluation of NFL expression after intravitreous administration. The settings on record: 10 nmol NMDA mixed with 15 nmol/eye compound intravitreously, retina isolated 1 day after, NFL corrected by GAPDH, non-treatment group = 100%, NMDA group = 0%. How it is done:
In the NMDA-induced rat retinal disorder model, the efficacy of the test compounds were evaluated using as an index the expression level in the retinal tissue of the neurofilament light chain (hereinafter referred to also as “NFL”) which is one of major constituents of the optic nerve axon and is considered to be important in maintaining the morphology of the optic nerve axon. The rat 1 day after the intravitreous administration of NMDA was treated with a 100 mg/kg sodium pentobarbital injection solution by an intraperitoneal administration to accomplish a systemic anesthesia and then the eyeballs were enucleated, and the retina was isolated. […] RR037B). In accordance with the instruction attached to QuantiTect Multiplex PCR Kit (1000) (QIAGEN, catalog No. 204545), QuantiTect Multiplex PCR Master Mix, the synthesized cDNA, the primers/probe for NFL (Sigma, “Ordermade”) and the primers/probe for glycerylaldehyde 3-phosphate dehydrogenase (hereinafter referred to also as “GAPDH”) (Applied Biosystems, Catalog No. 4352338E) were mixed, and a quantitative PCR machine (Applied Biosystems, Catalog No. 7500-03) was employed to conduct a PCR reaction, whereby measuring the expression levels of NFL and GAPDH. From the NFL and GAPDH expression levels thus obtained, a relative NFL expression level was calculated by correcting the NFL expression level based on the housekeeping gene GAPDH expression level in accordance with Equation 2. […] Each group included 1 animal (2 eyeballs). % Relative NFL expression level=(NFL expression level/GAPDH expression level) [Equation 2] % NFL recovery=(EX−EO)/(EP−EO)×100 [Equation 3] wherein EP is a relative NFL expression level in the non-treatment group, EO is a relative NFL expression level in the group of 10 nmol intravitreous NMDA administration and EX is a relative NFL expression level in the group of intravitreous administration of 10 nmol NMDA mixed with each compound. 5 μL of an NMDA solution dissolved in a 30% (v/v) DMSO-containing purified water (10 nmol as NMDA) was administered intravitreously. […]

Data set [3] can be described thus: Body weight evaluation in NMDA-induced rat retinal disorder model after oral administration. Particulars: 10 nmol NMDA intravitreously, 30 mg/kg orally twice a day for 3 days; for Weight gain (average): from day of NMDA administration to eyeball enucleation, non-treatment group 14.1. How it is done: Over a period from the day of the intravitreous NMDA administration through the eyeball enucleation, each individual animal was weighed once a day. Based on the body weight of the individual animal on the day of the intravitreous NMDA administration, the difference from the body weight on the day of the eyeball enucleation was calculated and the weight gain of each individual animal was calculated (average value). Each group included 4 animals. 5 μL of an NMDA solution dissolved in PBS (10 nmol as NMDA) was administered intravitreously. A 0.5% (w/v) aqueous solution of methyl cellulose was given by a repetitive oral administration twice a day in a volume of 10 mL/kg for 3 days from the day of the intravitreous NMDA administration until 2 days later. On the day of the intravitreous NMDA administration, a 0.5% (w/v) aqueous solution of methyl cellulose was given orally two times which were about 1 hour before the intravitreous NMDA administration and 1 to 2 hours. 5 μL of an NMDA solution dissolved in PBS (10 nmol as NMDA) was administered intravitreously. Each test compound suspended in 0.5% (w/v) methyl cellulose solution was given at a dose of 30 mg/kg by a repetitive oral administration twice a day in a volume of 10 mL/kg for 3 days from the day of the intravitreous NMDA administration until 2 days later. On the day of the intravitreous NMDA administration, each test compound suspended in 0.5% (w/v) methyl cellulose solution was given orally at a dose of 30 mg/kg two times which were about 1 hour before the NMDA administration and 1 to 2 hours. As a control compound, memantine was employed. 5 μL of an NMDA solution in PBS (10 nmol as NMDA) was administered intravitreously. Memantine dissolved in 0.5% (w/v) methyl cellulose solution was given at a dose of 30 mg/kg by a repetitive oral administration twice a day in a volume of 10 mL/kg for 3 days from the day of the intravitreous NMDA administration until 2 days later. On the day of the intravitreous NMDA administration, memantine dissolved in 0.5% (w/v) methyl cellulose solution was given orally at a dose of 30 mg/kg two times which were about 1 hour before the NMDA administration and 1 to 2 hours.

For the molecule `O=C(/C=C/c1c(C(=O)O)[nH]c2cc(Cl)cc(Cl)c12)Nc1ccccc1` [Compound A′, Sodium (E)-4,6-dichloro-3-(3-oxo-3-(phenylamino)-1-propenyl)-1H-indole-2-carboxylate], in data set [1], the “% Inhibition of GLC cell count reduction” value was 17.0%. Further, in data set [2], the “% NFL Recovery (%, average)” value was 86.6%. In data set [3], the “Weight gain compared with the non-treatment group (in words)” value is “weight gain almost equivalent to that in the non-treatment group” and the “Weight gain (average)” value is given as 12.6.

Turning to `CC12CC3CC(C)(C1)CC(N)(C3)C2` [memantine, reference compound], the “% Inhibition of GLC cell count reduction” value in data set [1] turned out to be 20.7%. Further, the “% NFL Recovery (%, average)” value in data set [2] is listed as 33.6%. For the same molecule, in data set [3], the “Weight gain compared with the non-treatment group (in words)” value is recorded as “inhibited the weight gain” and the “Weight gain (average)” value is −3.6.

For `O=C(O)c1[nH]c2cc(Cl)cc(Cl)c2c1/C=C1\CCN(c2ccccc2)C1=O` [Compound B′, sodium (E)-4,6-dichloro-3-((2-oxo-1-phenyl-3-pyrrolidinylidene)methyl)-1H-indole-2-carboxylate], the “% Inhibition of GLC cell count reduction” value in data set [1] turned out to be 14.8%. Further, in data set [2], the “% NFL Recovery (%, average)” value is given as 80.7%. In data set [3], the “Weight gain compared with the non-treatment group (in words)” value is listed as “weight gain almost equivalent to that in the non-treatment group” and the “Weight gain (average)” value worked out at 14.0.
